This is an account of results in patent US10500224B2, “Mutual prodrug comprising short chain fatty acids and zebularine or 1'-cyano-cytarabine for cancer treatment” (KAINOS MEDICINE, INC., priority 2013, dated 2019).

The structures appear in SMILES notation.

Data set [1] relates to Hep G2 (human hepatocellular carcinoma). Description: Anti-proliferative activity test (CellTiter-Glo), Hep G2. It counts as cell-based. The note with it: Hep G2, liver cancer. How it is done:
(§1) Six hundred cells in 90 media were plated per well in duplicates in a 96-well plate. Cells were incubated in a humidified incubator at 37° C. with 5% CO2 during the assay. DMSO was added to the test compounds with the final DMSO concentration being 0.1% [v/v] of the culture. 100 μl of CellTiter-Glo® was added to the equal volume of cultured cells to read luminescence in EnVision Multi Label Reader.
Background: ATP-based viability assays read luminescence as a measure of living cells.

Data set [2] has as its system MOLT-4 (human acute lymphoblastic leukemia). Description: Anti-proliferative activity test (CellTiter-Glo), MOLT-4. The note with it: MOLT-4, hematological. Type of data set: cell-based. How it is done: as §1
For data set [3], the system named is HL-60 (human acute promyelocytic leukemia). As to the kind of experiment: Anti-proliferative activity test (CellTiter-Glo), HL-60. The conditions noted are these: HL-60, hematological. It counts as cell-based. On the procedure: as §1
Data set [4] deals with HL-60 human leukemia xenograft. As to the kind of experiment: Tumor growth inhibition of IP-administered Compound 12 in HL-60 human leukemia xenograft. Type of data set: in vivo, NOD/SCID female mice. How it is done:
Tumor growth inhibition activities of IP-administered Ara-C and Compound 12 were compared in HL-60 human leukemia xenograft.
NOD/SCID female mice of 6-8 weeks age and weighing approximately 18 to 22 g, were used for tumor inoculation. Each mouse was inoculated subcutaneously at the right flank with HL-60 tumor cells (1×10^7 cells) in mixture of 100 μl of PBS and 100 of μl Matrigel™ for tumor development. Eight mice were used for each group (n=8/group). The amounts of treated compounds are represented in milligram (mg) of compound per kilogram (kg) of animal body weight (mg/kg, mpk). Administration route of all test compounds was through IP injection. […] The overall administration schedule was 2 cycles of compound treatment for 5 days, followed by 2 days of non-treatment. Tumor sizes were measured using a caliper, once every 4 days, and the tumor volume was expressed in mm^3 using Equation 1.
The tumor volume (mm^3) and body weight (g) results of five groups are shown in FIGS. 5A and 5B, respectively.

Data set [5] relates to HL-60 human leukemia xenograft. As to the kind of experiment: Efficacy of PO-administered Compound 12 in HL-60 human leukemia xenograft. Type of data set: in vivo, NOD/SCID female mice. The note with it: 5 d ON/2 d Off × 2. How it is done:
Tumor growth inhibition (TGI) activities of IP-administered Ara-C, and PO-administered Compound 12 were compared in HL-60 human leukemia xenografts.
NOD/SCID female mice of 6-8 weeks age and weighing approximately 18 to 22 g, were used for tumor inoculation. Each mouse was inoculated subcutaneously at the right flank with HL-60 cancer cells (1×10^7 cells) in mixture of 100 μl of PBS and 100 μl of Matrigel™ for tumor development. Eight mice were used for each group (n=8/group). The amounts of treated compounds are represented in milligram (mg) of compound per kilogram (kg) of animal body weight (mg/kg, mpk). Administration route of the test compound was either intraperitoneal (IP) injection or peros (PO, oral) injection. […] The overall administration schedule was 2 cycles of treatment for 5 days (5 d ON), followed by 2 days of non-treatment (2 d OFF). Tumor sizes were measured using a caliper, once every 4 days, and the tumor volume was expressed in mm^3 using Equation 1: V=0.5a×b^2 [Equation 1]
Wherein, a and b are the long and short diameters of the tumor, respectively.
The tumor volume (mm^3) and body weight (g) results of the three groups are shown in FIGS. 4A and 4B, respectively.

The subject of data set [6] is HCT 116 (human colorectal carcinoma). As to the kind of experiment: Anti-proliferative activity test (CellTiter-Glo), HCT 116. It counts as cell-based. The conditions noted are these: HCT 116, colon cancer. On the procedure: as §1
Data set [7] relates to MV-4-11 (human biphenotypic B myelomonocytic leukemia). As to the kind of experiment: Anti-proliferative activity test (CellTiter-Glo), MV-4-11. Type of data set: cell-based. The note with it: MV-4-11, hematological. On the procedure:
as §1

Data set [8] addresses T1, recombinant human cytidine deaminase (CDA) (Homo sapiens, UniProt P32320).
T1 construct: His6; host or cells: E. coli
As to the kind of experiment: Cytidine deaminase (CDA) assay. It counts as biochemical.

A short description of data set [9]: Mouse pharmacokinetics of Compound 12. Type of data set: in vivo, ICR mice. The conditions noted are these: ICR, plasma, 10 mg/kg. How it is done: (§2) Pharmacokinetics of Compound 12 prepared in Example 1 were evaluated in ICR mice and SD rats following intravenous (IV) administration at 10 mg/kg and peroral (PO) administration at 10 mg/kg dose level, respectively.
(§3) For serum compound analysis, blood samples were collected by cardiac puncture over 24 hr time course. 20 μl of spiked plasma was added into 96 well plate, adding ten volumes of internal standard (IS) in acetonitrile (ACN) to precipitate proteins, mixed fully, centrifuged for 10 min at 4,000 rpm. 150 μl of supernatant was transferred to another pre-labeled 96 well plate, mixed with 150 μl of water, then injected 5 μl or 10 μl into the liquid chromatography-mass spectrometry (LC-MS) system under the following conditions:
(§4) Column: API-4000+Waters UPLC (TCLM08);
(§5) Lower limit of quantification (LLOQ) was at 1 ng/mL. Pharmacokinetic parameters of half-life (T1/2), clearance (CL), maximum plasma concentration (Cmax), time when the maximal serum concentration of compound is achieved (Tmax) and bioavailability (F %), exposure (AUC) and volume of distribution (Vss) of the compound were calculated using Phoenix WinNonlin 6.3 (non-compartmental model).

Data set [10] in a line: Rat pharmacokinetics of Compound 12. Type of data set: in vivo, SD rats. The conditions noted are these: SD, plasma, 10 mg/kg. How it is done:
as §2, §3, §4, §5

Data set [11] can be described thus: Pharmacokinetics of Compounds 16, 22 and 23. It counts as in vivo, SCID/mice. The conditions noted are these: SCID, mouse, plasma. On the procedure: Pharmacokinetics of Compound 16 (Comparative example) prepared in step 3 of Example 2, and mutual prodrugs of Compounds 22 and 23 prepared in Example 3 and 4, respectively, were evaluated in SCID/mice following oral (PO) and intravenous (IV) administration according to the route/dose as shown in Table 4.
Blood samples were collected over 24 hrs, and plasma samples were prepared. Plasma concentrations of the test compounds were analyzed by LC/MS/MS. The maximum plasma concentration (Cmax), exposure (AUC), bioavailability (F %), half-life (T1/2), clearance (CL), volume of distribution (Vss), time when the maximal serum concentration of compound is achieved (Tmax) and mean residence time (MRT) were calculated as were in Test Example 3.

The next data set relates to MOLT-4 xenograft. Description: Tumor growth inhibition of Compounds 22 and 23 in MOLT-4 xenograft. It counts as in vivo, mice.
Setting [12] is: 150 mpk, 5 d ON/2 d OFF × 2, FIG. 6.

T1 sequence (P32320 whole entry): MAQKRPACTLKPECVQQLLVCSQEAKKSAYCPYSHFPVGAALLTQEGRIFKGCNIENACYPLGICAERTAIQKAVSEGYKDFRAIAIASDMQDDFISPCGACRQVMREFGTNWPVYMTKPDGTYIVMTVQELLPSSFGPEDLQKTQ

Broadly, the IC50 is the point on the concentration scale where inhibition reaches its midpoint. Higher therefore signals lower potency. For the compound `Nc1ccn([C@@H]2O[C@H](CO)[C@@H](O)[C@@H]2O)c(=O)n1` [Ara-C, cytarabine], the IC50 in [1] (Homo sapiens, HepG2) amounted to 1910 nM; in data set [2] (Homo sapiens), 20 nM; in [3] (Homo sapiens) it was 630 nM; in data set [6] (Homo sapiens), 290 nM; in [7] (Homo sapiens, MV4-11), 3100 nM. For the same compound, the “TGI (%)” value in data set [4] (60 mpk) is on record as 60%. Moreover, in data set [5] (40 mpk, IP), the “% BW change” value is on record as −6.2%. Besides, in data set [5] (40 mpk, IP), the “% TGI” value is recorded as 46%.

In the case of `N#C[C@@]1(n2ccc(N)nc2=O)O[C@H](CO)[C@@H](O)[C@@H]1O` [Compound 11], the IC50 in data set [1] came to 6000 nM; in [2], 1060 nM; in data set [3], 2410 nM; in [6] it was 960 nM; in data set [7], 5000 nM. Further, the “susceptibility to deamination by CDA” value in data set [8] was “resistant to deamination by CDA”. Also, the Relative rxn velocity in [8] (0.01 mM substrate, 25° C., OD282, relative to cytidine) is recorded as under 0.01.

One may read the clearance as a measure of how efficiently the substance is removed, as volume per time. Read a high clearance as efficient removal. As usually defined, the half-life is the time needed for the level to fall by half in the phase considered. A higher half-life goes with slow loss. As a reminder, the bioavailability is dose-corrected exposure relative to a reference, in per cent. For `CCCC(=O)OC[C@H]1O[C@@](C#N)(n2ccc(N)nc2=O)[C@@H](O)[C@@H]1O` [Compound 12, ((2R,3S,4S,5R)-5-(4-amino-2-oxopyrimidin-1(2H)-yl)-5-cyano-3,4-dihydroxytetrahydrofuran-2-yl)methyl Butyrate], the IC50 in [1] (Homo sapiens, HepG2) was 560 nM; in [2] (Homo sapiens), 1140 nM; in [3] (Homo sapiens), 5060 nM; in data set [6] (Homo sapiens), 220 nM; in data set [7] (Homo sapiens, MV4-11), 130 nM. For the same compound, the clearance in [9] (IV) was 21.6 mL/min/kg; in data set [10] (IV), 11.4 mL/min/kg. For the same compound, the half-life in data set [9] (IV) is 3.1 h; in data set [9] (PO), 4.6 h; in [10] (IV), 3.1 h; in [10] (PO) it was 2.5 h. Further, the bioavailability in [9] (PO) came to 62%; in [10] (PO), 48.8%. For the same compound, the figures for the “TGI (%)” value in data set [4] (20 mpk), in data set [4] (40 mpk) and in [4] (60 mpk) were 36%, 46% and 59%, respectively. The “% BW change” value in data set [5] (60 mpk, PO) is −0.9%. Moreover, the “% TGI” value in data set [5] (60 mpk, PO) is reported as 50%.

By AUC is commonly meant the area under the concentration-time curve, a measure of exposure. What is called Cmax is the highest concentration seen after dosing. A word on the TGI: it is the reduction of tumour growth relative to the control group. A low value points to a weaker effect on the tumour. Consider `O=c1ncccn1[C@@H]1O[C@H](CO)[C@@H](O)[C@H]1O` [Compound 16, 1-((2R,3R,4S,5R)-3,4-dihydroxy-5-(hydroxymethyl)tetrahydrofuran-2-yl)pyrimidin-2(1H)-one, reference compound], for which, in [11] (100 mg/kg, IV/100 mpk), the AUC is 54600 ng·h/mL, the clearance came to 30.2 mL/min/kg and the half-life was 2.03 h. For the same compound, the Vd in data set [11] (100 mg/kg, IV/100 mpk, read-out: Vss) was 0.91 L/kg. In data set [11] (500 mg/kg, PO/500 mpk), this compound gave an AUC of 20900 ng·h/mL, a Cmax of 22.3 µM, a bioavailability of 8.4% and a half-life of 2.44 h. Besides, the TGI in the data set on MOLT-4 xenograft (zebularine, dose not stated, FIG. 6) came to 10%.

By MRT is commonly meant a mean duration of stay, worked out from the concentration-time curve. A word on the Tmax: it is the time at which the peak concentration occurs. In data set [11] (75 mg/kg, PO/75 mpk), `CCCC(=O)OC[C@H]1O[C@@H](n2cccnc2=O)[C@H](OC(=O)CCC)[C@@H]1OC(=O)CCC` [Compound 22, (2R,3R,4R,5R)-2-((butyryloxy)methyl)-5-(2-oxopyrimidin-1(2H)-yl)tetrahydrofuran-3,4-diyl Dibutyrate] registered an AUC of 500 ng·h/mL and a Cmax of 0.88 µM. In addition, in data set [11] (150 mg/kg, PO/150 mpk), the AUC was 1100 ng·h/mL, the concentration peaked (Cmax) at 4.4 µM, the MRT was 1.2 h and the Tmax was 0.5 h. In [11] (150 mg/kg, PO/150 mpk), this compound had a bioavailability of 2.7% and a half-life of 1.6 h. The compound further yielded a TGI in the data set with MOLT-4 xenograft (setting [12]) of 40%.

Regarding `CC(C)C(=O)OC[C@H]1O[C@@H](n2cccnc2=O)[C@H](OC(=O)C(C)C)[C@@H]1OC(=O)C(C)C` [Compound 23, (2R,3R,4R,5R)-2-((isobutyryloxy)methyl)-5-(2-oxopyrimidin-1(2H)-yl)tetrahydrofuran-3,4-diyl bis(2-methylpropanoate)], in data set [11] (75 mg/kg, PO/75 mpk), the AUC amounted to 1800 ng·h/mL and the Cmax turned out to be 5.3 µM. For the same compound, in data set [11] (150 mg/kg, PO/150 mpk), the AUC came out at 6500 ng·h/mL, the Cmax turned out to be 30.7 µM, the MRT came to 1.3 h and the Tmax was determined as 0.5 h. In [11] (150 mg/kg, PO/150 mpk), the bioavailability stood at 16% and the half-life was 4.9 h. The inhibition of tumour growth (TGI) with MOLT-4 xenograft (setting [12]) is listed as 40%.
